Legend:
Type in all cases: cell-based, human
HTT [1] = assay: HiBiT protein abundance assay, HTT; conditions: Homo sapiens, K562, 24 h, Table 13A, modified K562 cells
In short: (§1)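 Target abundance was measured as HiBiT luminescence after 24 h compound treatment of tagged K562 cells. Responses were normalized between unmodified K562 and DMSO-treated tagged cells, and IC50 taken at the 50% level of a 4PL curve.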

Target C [2] = assay: HiBiT protein abundance assay, Target C; conditions: Homo sapiens, K562, 24 h, Table 13A, modified K562 cells
In short: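 Cells carrying the HiBiT knock-in were plated at 10000 cells/well, dosed with compound (10-point, 3-fold, 10 μM top final) and incubated 24 hours at 37 °C. Lytic reagent was then added and luminescence read. Percent response fed a 4PL fit for IC50.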

SMN2 = assay: Splicing RT-qPCR panel, SMN2 canonical junction (CJ) mRNA; conditions: Homo sapiens, RT-qPCR panel, canonical junction mRNA; compound concentration having 50% response in CJ decrease; read-out: SMN2 IC50 (decrease in CJ mRNA levels)
In short: (§2)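 Cells: A673 (DMEM/10% FBS) or K562 (IMDM/10% FBS). Dose: 11-pt 3-fold, top 10 uM final, ≤0.25% DMSO, 24 h, 37 °C. Readout: RT-qPCR of CJ/AJ exon junctions, ΔΔCt vs housekeeper and DMSO, RQ to % response.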

MYB [3] = assay: HiBiT protein abundance assay, MYB; conditions: Homo sapiens, K562, 24 h, Table 13A, modified K562 cells
In short: as §1

Target C [4] = assay: Splicing RT-qPCR panel, Target C canonical junction (CJ) mRNA; conditions: Homo sapiens, RT-qPCR panel, canonical junction mRNA; compound concentration having 50% response in CJ decrease; read-out: Target C IC50 (decrease in CJ mRNA levels)
In short: as §2

MYB [5] = assay: Splicing RT-qPCR assay, MYB mRNA canonical junction (CJ) and alternative junction (AJ); conditions: Homo sapiens; for AC50: increase in AJ mRNA
In short: as §2

HTT [6] = assay: Splicing RT-qPCR assay, HTT mRNA canonical junction (CJ) and alternative junction (AJ); conditions: Homo sapiens; for AC50: increase in AJ mRNA
In short: as §2

[7] = 24 h, decrease in CJ mRNA, A673 or K562 cells, 24 hours treatment, RT-qPCR, read-out: MYB CJ IC50
[8] = 24 h, A673 or K562 cells, 24 hours treatment, RT-qPCR
[9] = RT-qPCR panel, canonical junction mRNA, compound concentration having 50% response in CJ decrease, read-out: MYB IC50 (decrease in CJ mRNA levels)
[10] = 24 h, decrease in CJ mRNA, A673 or K562 cells, 24 hours treatment, RT-qPCR, read-out: HTT CJ IC50
[11] = RT-qPCR panel, canonical junction mRNA, compound concentration having 50% response in CJ decrease, read-out: HTT IC50 (decrease in CJ mRNA levels)

Compound	IC50 (HTT [1])	IC50 (Target C [2])	IC50 (SMN2)	IC50 (MYB [3])	IC50 (Target C [4])	IC50 (MYB [5]; [7])	AC50 (MYB [5]; [8])	IC50 (MYB [5]; [9])	IC50 (HTT [6]; [10])	AC50 (HTT [6]; [8])	IC50 (HTT [6]; [11])
COc1cc(-c2ccc(-c3ccc(N(C)C4CC(C)(C)NC(C)(C)C4)nn3)c3scnc23)ccn1 [Compound 280]	< 100 nM	100 to 1000 nM	100 to 1000 nM	100 to 1000 nM	1000 to 10000 nM	1000 to 10000 nM	1000 to 10000 nM	1000 to 10000 nM	100 to 1000 nM	100 to 1000 nM	100 to 1000 nM
CN(c1ccc(-c2ccc(-c3ccc(=O)n(C)c3)c3ncsc23)nn1)C1CC(C)(C)NC(C)(C)C1 [Compound 281]	1000 to 10000 nM	1000 to 10000 nM	100 to 1000 nM	1000 to 10000 nM	> 10000 nM	1000 to 10000 nM	> 10000 nM	1000 to 10000 nM	> 10000 nM	> 10000 nM	> 10000 nM
c1nc2c(-c3cn[nH]c3)ccc(-c3ccc(N(C4CCNCC4)C4CC4)nn3)c2s1 [Compound 283]	1000 to 10000 nM	1000 to 10000 nM	1000 to 10000 nM	100 to 1000 nM	1000 to 10000 nM	> 10000 nM	> 10000 nM	> 10000 nM	1000 to 10000 nM	1000 to 10000 nM	1000 to 10000 nM
CC1(C)CC(N(c2ccc(-c3ccc(-c4cn[nH]c4)c4ncsc34)nn2)C2CC2)CC(C)(C)N1 [Compound 284]	100 to 1000 nM	1000 to 10000 nM	100 to 1000 nM	100 to 1000 nM	1000 to 10000 nM	100 to 1000 nM	> 10000 nM	100 to 1000 nM	100 to 1000 nM	100 to 1000 nM	100 to 1000 nM
CN(C)[C@H]1[C@@H]2CN(c3ccc(-c4ccc(-c5cn[nH]c5)c5ncsc45)nn3)C[C@@H]21 [Compound 285]	1000 to 10000 nM	> 10000 nM	100 to 1000 nM	1000 to 10000 nM	> 10000 nM	> 10000 nM	> 10000 nM	> 10000 nM	> 10000 nM	1000 to 10000 nM	> 10000 nM
CN1CCC12CCN(c1ccc(-c3ccc(-c4cn[nH]c4)c4ncsc34)nn1)C2 (stereo not shown) [Compound 287]	1000 to 10000 nM	1000 to 10000 nM	100 to 1000 nM	100 to 1000 nM	> 10000 nM	> 10000 nM	> 10000 nM	> 10000 nM	> 10000 nM	> 10000 nM	> 10000 nM
CN1CCCC2(CCN2c2ccc(-c3ccc(-c4cn[nH]c4)c4ncsc34)nn2)C1 (stereo not shown) [Compound 288]	1000 to 10000 nM	1000 to 10000 nM	1000 to 10000 nM	100 to 1000 nM	> 10000 nM	> 10000 nM	> 10000 nM	> 10000 nM	> 10000 nM	> 10000 nM	> 10000 nM
CN1CCC2(CC1)CCN2c1ccc(-c2ccc(-c3cn[nH]c3)c3ncsc23)nn1 [Compound 289]	1000 to 10000 nM	> 10000 nM	> 10000 nM	100 to 1000 nM	> 10000 nM	1000 to 10000 nM	> 10000 nM	1000 to 10000 nM	> 10000 nM	> 10000 nM	> 10000 nM
[2H]C([2H])([2H])N(c1ccc(-c2ccc(-c3cn[nH]c3)c3cn[nH]c23)nn1)C1CC(C)(C)NC(C)(C)C1 [Compound 292]	100 to 1000 nM	100 to 1000 nM	< 100 nM	100 to 1000 nM	1000 to 10000 nM	100 to 1000 nM	1000 to 10000 nM	100 to 1000 nM	100 to 1000 nM	100 to 1000 nM	100 to 1000 nM
CCN(c1ccc(-c2ccc(-c3cn[nH]c3)c3cn[nH]c23)nn1)C1CC(C)(C)NC(C)(C)C1 [Compound 293]	1000 to 10000 nM	1000 to 10000 nM	100 to 1000 nM	1000 to 10000 nM	> 10000 nM	1000 to 10000 nM	> 10000 nM	1000 to 10000 nM	1000 to 10000 nM	1000 to 10000 nM	1000 to 10000 nM
CN(c1ccc(-c2ccc(-c3cn[nH]c3)c3cn[nH]c23)nn1)[C@@H]1C[C@H]2CCC[C@@H](C1)N2 [Compound 295]	< 100 nM	< 100 nM	< 100 nM	< 100 nM	< 100 nM	< 100 nM	100 to 1000 nM	< 100 nM		< 100 nM	< 100 nM
[2H]C([2H])([2H])N(c1ccc(-c2ccc(-c3cn[nH]c3)c3cn[nH]c23)nn1)[C@@H]1C[C@H]2CCC[C@@H](C1)N2 [Compound 296]	< 100 nM	< 100 nM	< 100 nM	< 100 nM	< 100 nM	100 to 1000 nM	< 100 nM	100 to 1000 nM		< 100 nM	< 100 nM
CCN(c1ccc(-c2ccc(-c3cn[nH]c3)c3cn[nH]c23)nn1)[C@@H]1C[C@H]2CCC[C@@H](C1)N2 [Compound 297]	100 to 1000 nM	100 to 1000 nM	< 100 nM	100 to 1000 nM	100 to 1000 nM	100 to 1000 nM	100 to 1000 nM	100 to 1000 nM	100 to 1000 nM	100 to 1000 nM	100 to 1000 nM
CCN(c1ccc(-c2ccc(-c3cn[nH]c3)c3cn[nH]c23)nn1)[C@@H]1C[C@H]2CC[C@@H](C1)N2 [Compound 300]	100 to 1000 nM	100 to 1000 nM	100 to 1000 nM	100 to 1000 nM	100 to 1000 nM	1000 to 10000 nM	100 to 1000 nM	1000 to 10000 nM	100 to 1000 nM	100 to 1000 nM	100 to 1000 nM
CN(c1ccc(-c2ccc(-c3cn[nH]c3)c3cn[nH]c23)nn1)[C@H]1[C@@H]2CNC[C@@H]21 [Compound 301]	> 10000 nM	> 10000 nM	> 10000 nM	1000 to 10000 nM	> 10000 nM	> 10000 nM	> 10000 nM	> 10000 nM	> 10000 nM	> 10000 nM	> 10000 nM
CN1C[C@@H]2[C@H](C1)[C@H]2N(C)c1ccc(-c2ccc(-c3cn[nH]c3)c3cn[nH]c23)nn1 [Compound 302]	> 10000 nM	> 10000 nM	> 10000 nM	1000 to 10000 nM	> 10000 nM	> 10000 nM	> 10000 nM	> 10000 nM	> 10000 nM	> 10000 nM	> 10000 nM
CN(C)[C@H]1[C@@H]2CN(c3ccc(-c4ccc(-c5cn[nH]c5)c5cn[nH]c45)nn3)C[C@@H]21 [Compound 303]	1000 to 10000 nM	1000 to 10000 nM	1000 to 10000 nM	1000 to 10000 nM	> 10000 nM	> 10000 nM	> 10000 nM	> 10000 nM	> 10000 nM	> 10000 nM	> 10000 nM
c1n[nH]cc1-c1ccc(-c2ccc(N3CC[C@@]45CCN[C@@H]4CC[C@@H]35)nn2)c2[nH]ncc12 [Compound 304]	1000 to 10000 nM	> 10000 nM	1000 to 10000 nM	1000 to 10000 nM	> 10000 nM	> 10000 nM	> 10000 nM	> 10000 nM	> 10000 nM	> 10000 nM	> 10000 nM
CC(C)(C)NC1CCN(c2ccc(-c3ccc(-c4cn[nH]c4)c4cn[nH]c34)nn2)C1 (stereo not shown) [Compound 305]	100 to 1000 nM	1000 to 10000 nM	< 100 nM	100 to 1000 nM	1000 to 10000 nM	1000 to 10000 nM	1000 to 10000 nM	1000 to 10000 nM	100 to 1000 nM	100 to 1000 nM	100 to 1000 nM
c1n[nH]cc1-c1ccc(-c2ccc(N3CCC(NC4CC4)C3)nn2)c2[nH]ncc12 (stereo not shown) [Compound 306]	1000 to 10000 nM	> 10000 nM	100 to 1000 nM	1000 to 10000 nM	> 10000 nM	> 10000 nM	> 10000 nM	> 10000 nM	> 10000 nM	1000 to 10000 nM	> 10000 nM
CC(C)(C)NC1CCN(c2ccc(-c3ccc(-n4cccn4)c4cn[nH]c34)nn2)C1 (stereo not shown) [Compound 310]	1000 to 10000 nM	1000 to 10000 nM	100 to 1000 nM	1000 to 10000 nM	> 10000 nM	1000 to 10000 nM	> 10000 nM	1000 to 10000 nM	1000 to 10000 nM	1000 to 10000 nM	1000 to 10000 nM

From patent US20240368163A1, “COMPOUNDS AND METHODS FOR MODULATING SPLICING” (REMIX THERAPEUTICS INC., priority 2021, published 2024)
